According to patent US6413936B1, “Glycomimetics as selectin antagonists and pharmaceuticals having antiinflammatory activity” (Glycorex AB, priority 1995, dated 2002):
Where two headings read alike, the source gives them in different places. One block for each molecule: values may come before it. Numbered stars: 1 amine (or outer) side, 2 acyl side, 3 side chain; on linkers, the order of the positions; unused ones are H or OH. Square brackets hold non-standard residues; d marks the D form. Peptide text beside a SMILES is read from it. ξ: configuration not given here. X1 = CC1O[C@@H](CCCc2ccc(CC(N[*:1])C(=O)[*:2])cc2)C(O)C(O)[C@@H]1O; ξR = N=C(N)NCCCC(N)C(=O)O; ξS = NC(CO)C(=O)O

What was measured:
E-selectin = molecular target: T1, E-selectin (Homo sapiens, UniProt P16581); assay: HL60 cell adhesion assay on recombinant soluble E-selectin-IgG1 fusion protein; assay type: cell-based; settings: HL60 cell adhesion to E-selectin-IgG1
T1 construct: fusion proteins formed from the extracytoplasmatic domains of E- or P-selectin, respectively, and the constant region of human immunoglobulin of the IgG1 subclass; made in house; host or cells: COS-7 cells (transient transfection, culture supernatant)
T1 sequence (P16581 22-556): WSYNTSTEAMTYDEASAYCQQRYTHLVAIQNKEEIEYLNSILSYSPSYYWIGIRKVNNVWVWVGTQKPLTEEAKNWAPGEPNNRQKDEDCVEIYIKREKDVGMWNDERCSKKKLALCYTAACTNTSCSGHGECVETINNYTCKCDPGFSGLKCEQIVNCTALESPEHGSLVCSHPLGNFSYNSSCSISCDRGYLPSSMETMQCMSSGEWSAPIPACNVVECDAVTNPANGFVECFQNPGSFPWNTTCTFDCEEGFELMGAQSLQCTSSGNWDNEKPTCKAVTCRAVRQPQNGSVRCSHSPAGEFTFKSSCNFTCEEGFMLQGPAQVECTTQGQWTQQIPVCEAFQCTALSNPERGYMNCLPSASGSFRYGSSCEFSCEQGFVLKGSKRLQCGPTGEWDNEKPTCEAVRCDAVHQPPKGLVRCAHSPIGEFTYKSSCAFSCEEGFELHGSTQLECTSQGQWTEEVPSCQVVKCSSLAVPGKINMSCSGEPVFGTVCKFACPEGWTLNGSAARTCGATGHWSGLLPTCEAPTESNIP
Description: In these assays, the ligands may be supplied in their natural form as surface structures on promyelocytic HL60 cells. Since HL60 cells contain ligands and adhesion molecules of very different specificity, the desired specificity of the assay must therefore be provided by the binding component. Preferably, the binding components used are recombinant, soluble, fusion proteins formed from the extracytoplasmatic domains of E- or P-selectin, respectively, and the constant region of human immunoglobulin of the IgG1 subclass. […] An example of a suitable negative control is a fusion protein formed between the extracytoplasmic domain of CD4 and the IgG constant region.
These fusion proteins are then used in a cell adhesion assay in which COS cells transfected with the recombinant fusion proteins are first bound to the surface of a microtiter plate. The compound to be tested is added to the wells of the microtiter platein varying concentrations, followed by HL60 cells. After a defined period of time, the wells of the microtiter plate are washed and the HL60 cells adhering to the plate are counted. In a preferred embodiment, the HL60 cells are prelabeled with a fluorescent dye to facilitate cell counting. The number of cells adhering to the plate allows quantification of the inhibitory properties of the compound under test. […]

P-selectin [1] = molecular target: T2, P-selectin (Homo sapiens, UniProt P16109); assay: HL60 cell adhesion assay on recombinant soluble P-selectin-IgG1 fusion protein; assay type: cell-based; settings: HL60 cell adhesion to P-selectin-IgG1
T2 construct: fused on or other part: constant region (hinge-Fc) of human IgG1 at the C-terminus, used as a capture handle
T2 sequence (P16109 42-321 limits assumed): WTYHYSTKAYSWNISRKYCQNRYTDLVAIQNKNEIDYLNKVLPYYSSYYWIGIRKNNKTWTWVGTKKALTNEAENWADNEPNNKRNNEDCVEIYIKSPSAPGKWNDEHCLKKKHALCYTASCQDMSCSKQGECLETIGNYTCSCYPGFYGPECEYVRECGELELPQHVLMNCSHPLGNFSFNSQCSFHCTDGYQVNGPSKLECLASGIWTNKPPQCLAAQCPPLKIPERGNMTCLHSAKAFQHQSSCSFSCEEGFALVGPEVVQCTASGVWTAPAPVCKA
Description: 5. […] In the course of this, the cells have the opportunity to adhere to the coated plastic.

selectins [2] = settings: prior-art mimetics, Wong et al.; cited from earlier work
selectins [3] = settings: prior-art glycopeptide analogs; cited from earlier work
selectin = settings: cited from earlier work
P-selectin [4] = molecular target: T3, P-selectin (Homo sapiens, UniProt P16109); settings: read-out: IC50 for binding to P-selectin; cited from earlier work
T3 sequence (P16109 42-830): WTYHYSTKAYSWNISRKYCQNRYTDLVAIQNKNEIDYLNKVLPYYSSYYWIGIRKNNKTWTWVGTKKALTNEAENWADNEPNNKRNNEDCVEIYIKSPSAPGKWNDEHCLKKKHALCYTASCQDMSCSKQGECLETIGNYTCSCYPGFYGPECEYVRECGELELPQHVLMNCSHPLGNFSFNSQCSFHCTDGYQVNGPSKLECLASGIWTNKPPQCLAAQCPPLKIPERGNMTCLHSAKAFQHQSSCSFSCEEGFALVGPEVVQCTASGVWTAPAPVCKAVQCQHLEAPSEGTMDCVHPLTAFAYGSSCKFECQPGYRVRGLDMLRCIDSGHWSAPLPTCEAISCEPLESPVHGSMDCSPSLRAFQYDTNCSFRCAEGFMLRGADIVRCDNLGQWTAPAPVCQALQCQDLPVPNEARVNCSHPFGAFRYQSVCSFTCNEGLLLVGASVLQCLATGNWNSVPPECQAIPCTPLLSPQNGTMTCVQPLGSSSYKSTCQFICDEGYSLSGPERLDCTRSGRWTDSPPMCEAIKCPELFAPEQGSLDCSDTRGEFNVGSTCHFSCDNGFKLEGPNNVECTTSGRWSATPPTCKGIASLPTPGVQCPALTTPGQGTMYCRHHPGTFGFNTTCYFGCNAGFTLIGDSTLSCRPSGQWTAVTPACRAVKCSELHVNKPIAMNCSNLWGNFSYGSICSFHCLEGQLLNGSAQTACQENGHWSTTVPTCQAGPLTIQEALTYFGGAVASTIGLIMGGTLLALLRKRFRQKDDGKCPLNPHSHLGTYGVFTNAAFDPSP

[5] = system: P-selectin-dependent lung damage; settings: animal experiments; cited from earlier work
[6] = system: myocardial reperfusion injuries; settings: animal experiments; cited from earlier work

IC50 (E-selectin): 2000 µM
IC50 (P-selectin [1]): 2000 µM
Molecule: CC1O[C@@H](C/C=C/c2ccc(C(=O)O)cc2)C(O)[C@@H](O)[C@@H]1O (some centres unmarked) [Compound 23]

Molecule: C[C@@H]1OC(CCCCC2O[C@H](CO)[C@H](O)[C@H](OCC(=O)O)[C@H]2O)[C@@H](O)C(O)[C@@H]1O (some centres unmarked) [(3)]
IC50 (selectins [2]): 10000 to 20000 µM

IC50 (P-selectin [1]): 3000 to 5000 µM
Molecule: CC1O[C@@H](CCCc2ccc(CC(N)C(=O)NC(CCCNC(=N)N)C(=O)NCC(=O)N[C@@H](CC(=O)O)C(=O)NC(CO)C(=O)O)cc2)C(O)C(O)[C@@H]1O (stereo partly drawn) [Compound 36, Ser-Asp-Gly-Arg-[C-FucPhe]] (H-[X1][ξR]GD[ξS]-OH)

IC50 (E-selectin): 2000 µM
IC50 (P-selectin [1]): 2000 µM
Molecule: C[C@@H]1O[C@@H](CCCc2ccc(CC(N)C(=O)O)cc2)[C@@H](O)[C@H](O)[C@@H]1O (some centres unmarked) [Compound 20]

Molecule: C[C@@H]1OC(CC(=O)C2CCC[C@H]2C(=O)N[C@@H](Cc2ccccc2)C(=O)O)[C@@H](O)[C@H](O)[C@@H]1O (some centres unmarked) [(2)]
IC50 (selectins [3]): ~1000 µM

Molecule: COC1OC(C)C(O)(CC(=O)CCCOC2(C(=O)O)CC(O)C(NC(C)=O)C([C@H](O)[C@H](O)CO)O2)C(O)C1O (some centres unmarked)
affinity for selectin binding (selectin): only low affinity

Molecule: C[C@@H]1O[C@@H](CC(=O)CO[C@H]2CC[C@@]3(C)C(CC[C@]4(C)[C@H]3C(=O)C=C3[C@@H]5C[C@@](C)(C(=O)O)CC[C@]5(C)CC[C@]34C)C2(C)C)[C@@H](O)[C@H](O)[C@@H]1O (some centres unmarked) [(4a)]
IC50 (P-selectin [4]): 750 µM

Molecule: sialyl-Lewis-X [SLeX]
protection against P-selectin-dependent lung damage [5]: used successfully
protection against myocardial reperfusion injuries [6]: used successfully
